Reference: US8519007B2, “Use certain diterpene compounds in the treatment of androgen receptor-associated diseases” (Academia Sinica, priority 2008, dated 2013)
pIC50: −log10 of the molar value.

Columns and labels:
androgen receptor = biological target: T1, androgen receptor (Homo sapiens, UniProt P10275); experiment: PSA promoter luciferase reporter assay in 103E cells (AR transcriptional activity); details: for inhibition of AR activity: 50 μM, 20 h; for pIC50: read-out: IC50 of AR activity, 20 h, luciferase
T1 sequence (P10275 with tags, fused parts or gaps DUP590-628/H875Y): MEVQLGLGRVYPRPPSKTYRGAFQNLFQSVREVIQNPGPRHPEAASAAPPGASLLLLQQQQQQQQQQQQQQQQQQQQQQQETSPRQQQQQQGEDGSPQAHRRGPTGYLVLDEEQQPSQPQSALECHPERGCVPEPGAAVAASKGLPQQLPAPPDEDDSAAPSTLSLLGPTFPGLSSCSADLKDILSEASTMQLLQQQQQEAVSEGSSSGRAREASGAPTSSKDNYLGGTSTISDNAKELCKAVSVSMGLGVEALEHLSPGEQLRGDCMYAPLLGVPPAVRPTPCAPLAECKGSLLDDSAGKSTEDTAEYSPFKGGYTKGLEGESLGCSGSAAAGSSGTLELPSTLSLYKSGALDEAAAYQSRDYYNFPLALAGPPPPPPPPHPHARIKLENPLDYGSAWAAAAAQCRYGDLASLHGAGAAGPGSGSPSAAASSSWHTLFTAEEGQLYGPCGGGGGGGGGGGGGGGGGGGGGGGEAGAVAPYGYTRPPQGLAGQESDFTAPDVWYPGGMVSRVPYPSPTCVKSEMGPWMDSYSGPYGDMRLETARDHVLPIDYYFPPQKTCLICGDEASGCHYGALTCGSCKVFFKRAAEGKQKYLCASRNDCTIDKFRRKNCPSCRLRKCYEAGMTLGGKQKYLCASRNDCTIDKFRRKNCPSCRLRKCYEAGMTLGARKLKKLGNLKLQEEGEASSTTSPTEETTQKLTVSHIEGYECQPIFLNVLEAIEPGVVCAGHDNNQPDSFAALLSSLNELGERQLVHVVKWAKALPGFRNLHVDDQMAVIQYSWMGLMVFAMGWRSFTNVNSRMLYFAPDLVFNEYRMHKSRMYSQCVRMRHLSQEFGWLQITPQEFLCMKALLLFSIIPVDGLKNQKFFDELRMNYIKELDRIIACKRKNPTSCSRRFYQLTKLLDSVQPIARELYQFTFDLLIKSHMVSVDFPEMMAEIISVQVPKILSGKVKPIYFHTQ
Experimental: PC-3 and NIH-3T3 were cultured in DMEM (Hyclone) supplemented with 10% FBS. Cultures were maintained in a humidified incubator at 37° C. in 5% CO2/air.
Cells were treated with various compounds for a period of 20 h and luciferase activity was measured using a luciferase reporter gene assay system (Promega).

PC-3 cells = experiment: Cell cycle distribution by propidium iodide flow cytometry; assay type: cell-based, human; details: 48 h
Experimental: (§1) The cell cycle of treated cells was examined by flow cytometry after cellular staining with propidium iodide. 5×10^5 cells were seeded into 6-well multidishes with 10% FBS culture medium for 48 h. […] Cells were trypsinized thereafter, washed twice with cold PBS, and centrifuged. The pellet was suspended in cold PBS and 1 mL of 70% ethanol at 4° C. overnight, washed twice with cold PBS, and digested with RNase (100 μg/mL final concentration) and stained with propidium iodide (10 μg/mL final concentration) for 30 min and analyzed by flow cytometry (EPICS XL-MCL, Beckman Coulter, Inc., Fullerton, Calif.).

LNCaP cells = experiment: as above; assay type: cell-based, human; details: 48 h
Experimental: as §1

22Rv1 cells = experiment: as above; assay type: cell-based, human; details: 48 h
Experimental: as §1

COc1c(C(C)C)cc2c(c1O)[C@@]1(C)CCCC(C)(C)[C@@H]1CC2=O [Compound 1]
inhibition of AR activity (androgen receptor): approximately 70%
Inhibitionmax (%) of AR activity (androgen receptor; maximal inhibition at 50 μM): 77 ± 2% (50 μM)
pIC50 (androgen receptor): 5.06

CC(C)c1cc2c(cc1O)[C@@]1(C)CCCC(C)(C)[C@@H]1CC2 [Compound 4]
Inhibitionmax (%) of AR activity (androgen receptor; maximal inhibition at 25 μM): 100 ± 1% (25 μM)
pIC50 (androgen receptor): 4.92

CC(C)c1cc2c(cc1O)[C@@]1(C)CCCC(C)(C)[C@H]1OC2=O [Compound 5]
inhibition of AR activity (androgen receptor): less than 20%
Inhibitionmax (%) of AR activity (androgen receptor; maximal inhibition at 50 μM): 19 ± 6% (50 μM)

CC(C)C1=C[C@]2(O)CC[C@H]3C(C)(C)CCC[C@]3(C)C2=CC1=O [Compound 6]
inhibition of AR activity (androgen receptor): approximately 70%
Inhibitionmax (%) of AR activity (androgen receptor; maximal inhibition at 50 μM): 68 ± 6% (50 μM)
pIC50 (androgen receptor): 4.75

C=C1CC[C@@H]2[C@](C)(CCC[C@]2(C)C(=O)O)[C@H]1CC/C(C)=C/CO [Compound 8, isocupressic acid]
inhibition of AR activity (androgen receptor): 87%
Inhibitionmax (%) of AR activity (androgen receptor; maximal inhibition at 50 μM): 87 ± 3% (50 μM)
pIC50 (androgen receptor): 4.64

CC(C)c1cc2c(cc1O)[C@@]1(C)CCCC(C)(C)[C@@H]1C(=O)C2=O [Compound 7]
Inhibitionmax (%) of AR activity (androgen receptor; maximal inhibition at 25 μM): 100 ± 1% (25 μM)
pIC50 (androgen receptor): 4.89

CC(O)(CS(=O)(=O)c1ccc(F)cc1)C(=O)Nc1ccc(C#N)c(C(F)(F)F)c1 (centres unmarked) [CASODEX, bicalutamide, reference compound]
G0-G1 phase cell population (PC-3 cells; PC-3, 1 μM): 51.1 ± 3.6 %
G2-M phase cell population (PC-3 cells; PC-3, 1 μM): 24.4 ± 2.5 %
S phase cell population (PC-3 cells; PC-3, 1 μM): 18.5 ± 2.1 %
Sub-G1 phase cell population (PC-3 cells; PC-3, 1 μM): 2.3 ± 1.5 %
G0-G1 phase cell population (PC-3 cells; PC-3, 10 μM): 51.0 ± 2.1 %
G2-M phase cell population (PC-3 cells; PC-3, 10 μM): 25.2 ± 2.1 %
S phase cell population (PC-3 cells; PC-3, 10 μM): 19.0 ± 1.3 %
Sub-G1 phase cell population (PC-3 cells; PC-3, 10 μM): 1.8 ± 1.4 %
G0-G1 phase cell population (LNCaP cells; 1 μM): 62.1 ± 3.5 %
G2-M phase cell population (LNCaP cells; 1 μM): 21.8 ± 2.0 %
S phase cell population (LNCaP cells; 1 μM): 10.1 ± 1.7 %
Sub-G1 phase cell population (LNCaP cells; 1 μM): 1.0 ± 0.5 %
G0-G1 phase cell population (LNCaP cells; 10 μM): 61.3 ± 3.4 %
G2-M phase cell population (LNCaP cells; 10 μM): 22.3 ± 1.7 %
S phase cell population (LNCaP cells; 10 μM): 10.4 ± 1.5 %
Sub-G1 phase cell population (LNCaP cells; 10 μM): 1.3 ± 0.8 %
G0-G1 phase cell population (22Rv1 cells; 22Rv1, 1 μM): 53.5 ± 2.6 %
G2-M phase cell population (22Rv1 cells; 22Rv1, 1 μM): 25.0 ± 1.6 %
S phase cell population (22Rv1 cells; 22Rv1, 1 μM): 13.5 ± 2.3 %
Sub-G1 phase cell population (22Rv1 cells; 22Rv1, 1 μM): 1.5 ± 1.1 %
G0-G1 phase cell population (22Rv1 cells; 22Rv1, 10 μM): 53.0 ± 3.2 %
G2-M phase cell population (22Rv1 cells; 22Rv1, 10 μM): 25.4 ± 1.0 %
S phase cell population (22Rv1 cells; 22Rv1, 10 μM): 12.2 ± 1.8 %
Sub-G1 phase cell population (22Rv1 cells; 22Rv1, 10 μM): 2.3 ± 1.8 %

CC(C)c1cc2c(cc1O)[C@@]1(C)CCCC(C)(C)[C@@H]1CC2=O [Compound 3]
Inhibitionmax (%) of AR activity (androgen receptor; maximal inhibition at 25 μM): 100 ± 1% (25 μM)
pIC50 (androgen receptor): 5.58
